Experimental data taken from patent US20090124588A1, “Androstane 17-Alpha-Carbonate for Use in the Treatment of Inflammatory and Allergic Conditions” (Glaxo Group Limited, priority 2005, published 2009).

Columns and labels:
Type in all cases: cell-based
Progesterone Receptor = target: T1, Progesterone Receptor (Homo sapiens, UniProt P06401); assay: Progesterone receptor activity (CV-1 cells transduced with PRb-BacMam and MMTV-BacMam); conditions: 24 h, Steady Glo, read-out: pEC50 progesterone receptor (converted)
T1 construct: expressed in transfected cells; host or cells: CV-1 cells transduced with BacMam virus
T1 sequence (P06401 1-933): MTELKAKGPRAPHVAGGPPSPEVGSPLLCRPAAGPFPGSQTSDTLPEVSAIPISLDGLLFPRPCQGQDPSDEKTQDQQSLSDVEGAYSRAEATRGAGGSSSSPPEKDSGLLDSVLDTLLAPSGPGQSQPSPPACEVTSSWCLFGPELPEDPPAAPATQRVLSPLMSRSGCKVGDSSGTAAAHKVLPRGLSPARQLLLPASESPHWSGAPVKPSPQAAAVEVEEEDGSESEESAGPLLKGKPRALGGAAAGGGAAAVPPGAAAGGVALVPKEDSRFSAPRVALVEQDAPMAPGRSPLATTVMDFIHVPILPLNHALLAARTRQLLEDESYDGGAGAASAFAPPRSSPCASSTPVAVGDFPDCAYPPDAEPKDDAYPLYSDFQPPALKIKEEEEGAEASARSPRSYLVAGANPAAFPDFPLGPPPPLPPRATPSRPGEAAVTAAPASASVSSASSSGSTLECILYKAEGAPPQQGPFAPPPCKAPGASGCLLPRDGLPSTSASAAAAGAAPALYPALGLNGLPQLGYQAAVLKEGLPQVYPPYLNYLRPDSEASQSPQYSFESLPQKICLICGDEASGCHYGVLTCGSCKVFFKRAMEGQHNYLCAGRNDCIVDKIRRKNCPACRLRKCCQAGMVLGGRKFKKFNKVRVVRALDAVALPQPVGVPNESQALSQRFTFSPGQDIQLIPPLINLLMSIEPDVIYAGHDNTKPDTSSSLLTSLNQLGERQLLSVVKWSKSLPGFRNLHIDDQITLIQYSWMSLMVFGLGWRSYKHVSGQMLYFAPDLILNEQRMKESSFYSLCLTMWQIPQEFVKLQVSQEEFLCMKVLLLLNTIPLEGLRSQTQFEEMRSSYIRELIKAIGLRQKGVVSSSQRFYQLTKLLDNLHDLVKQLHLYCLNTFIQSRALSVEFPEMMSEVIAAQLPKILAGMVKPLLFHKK
Experimental: A T225 flask of CV-1 cells at a density of 80% confluency was washed with PBS, detached from the flask using 0.25% trypsin and counted using a Sysmex KX-21N. Cells were diluted in DMEM containing 10% Hyclone, 2 mM […] and 1% Pen/Strep at 140 cells/μl and transduced with 10% PRb-BacMam and 10% MMTV-BacMam. […] of suspension cells were dispensed to each well of white Nunc 384-well plates, containing compounds at the required concentration. After 24 h 10 μl of Steady Glo were added to each well of the plates. Plates were incubated in the dark for 10 min before reading them on a Viewlux reader. Dose response curves were constructed from which pEC50 values were estimated.

glucocorticoid receptor [1] = target: T2, glucocorticoid receptor (Homo sapiens, UniProt P04150); assay: Transactivation activity of glucocorticoid agonists (MMTV-LTR renilla luciferase reporter in A549 cells); conditions: 6 hour at 37° C., read-out: maximal response relative to Dexamethasone (100%)
T2 sequence (P04150 1-777): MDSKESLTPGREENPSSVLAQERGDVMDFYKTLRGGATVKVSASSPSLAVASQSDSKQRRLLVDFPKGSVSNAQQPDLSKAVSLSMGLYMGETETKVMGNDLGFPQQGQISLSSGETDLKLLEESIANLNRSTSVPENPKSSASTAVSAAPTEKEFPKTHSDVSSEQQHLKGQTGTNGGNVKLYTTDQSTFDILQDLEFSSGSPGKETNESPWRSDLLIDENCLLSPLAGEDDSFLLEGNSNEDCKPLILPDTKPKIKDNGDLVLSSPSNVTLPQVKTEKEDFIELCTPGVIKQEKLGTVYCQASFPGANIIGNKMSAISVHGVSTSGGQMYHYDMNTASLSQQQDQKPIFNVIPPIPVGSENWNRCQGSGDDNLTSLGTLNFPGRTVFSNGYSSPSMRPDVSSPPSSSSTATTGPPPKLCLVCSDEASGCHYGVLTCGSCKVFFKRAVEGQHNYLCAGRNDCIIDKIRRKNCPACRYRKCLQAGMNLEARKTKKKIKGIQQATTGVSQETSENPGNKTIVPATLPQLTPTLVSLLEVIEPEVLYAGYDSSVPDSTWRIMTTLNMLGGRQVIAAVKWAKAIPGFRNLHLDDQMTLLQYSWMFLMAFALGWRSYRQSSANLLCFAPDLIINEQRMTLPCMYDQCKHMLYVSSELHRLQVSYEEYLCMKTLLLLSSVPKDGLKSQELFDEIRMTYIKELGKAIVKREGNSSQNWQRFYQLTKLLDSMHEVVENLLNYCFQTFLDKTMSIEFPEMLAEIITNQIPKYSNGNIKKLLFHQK
Experimental: The functional assay based on that described by R. J. H. Austin et al., Eur Resp J. (2002), 20, 1386-1392 measures the ability of compounds to directly transactivate gene expression. A549 cells stably transfected with a reporter gene containing the glucocorticoid responsive region of the mouse mammary tumour virus long terminal repeat (MMTV-LTR) coupled to renilla luciferase were treated with test compounds at appropriate doses for 6 hour at 37° C. The amount of luciferase activity present within the cells is then determined by measuring the light emitted following incubation with a suitable substrate. Dose response curves were constructed from which EC50 values were estimated and from which maximal responses are calculated relative to Dexamethasone (100%).

glucocorticoid receptor [2] = target: T2, glucocorticoid receptor; assay: Transrepression activity of glucocorticoid agonists (NF-κB/ELAM-sPAP reporter in A549 cells, TNF stimulated); conditions: NF-κB responsive ELAM promoter-sPAP reporter, compound 1 hour, TNF 10 ng/ml 16 hours, read-out: pEC50 transrepression (converted)
Experimental: The functional assay based on that described by K. P. Ray et al., Biochem J. (1997), 328, 707-715 provides a measure of transrepressive activity of a glucocorticoid agonist. A549 cells stably transfected with a reporter gene containing the NF-κB responsive elements from the ELAM gene promoter coupled to sPAP (secreted alkaline phosphatase) are treated with test compounds at appropriate doses for 1 hour at 37° C. The cells are then stimulated with tumour necrosis factor (TNF, 10 ng/ml) for 16 hours, at which time the amount of alkaline phosphatase produced is measured by a standard colourimetric assay. Dose response curves were constructed from which EC50 values were estimated.

Row | SMILES | EC50 (Progesterone Receptor) | Emax (glucocorticoid receptor [1]) | EC50 (glucocorticoid receptor [2])
1 | CCC(C)(C)OC(=O)O[C@]1(C(=O)OCC#N)[C@H](C)C[C@H]2[C@@H]3C[C@H](F)C4=CC(=O)C=C[C@]4(C)[C@@]3(F)[C@@H](O)C[C@@]21C [Example 2, Cyanomethyl (6α,11β,16α,17α)-17-({[(1,1-dimethylpropyl)oxy]carbonyl}oxy)-6,9-difluoro-1-hydroxy-16-methyl-3-oxoandrosta-1,4-diene-17-carboxylate] | > 100 nM | < 10% | < 0.1 nM
2 | C[C@@H]1C[C@H]2[C@@H]3C[C@H](F)C4=CC(=O)C=C[C@]4(C)[C@@]3(F)[C@@H](O)C[C@]2(C)[C@@]1(OC(=O)OC(C)(C)C)C(=O)OCC#N [Example 1, Cyanomethyl (6α,11β,16α,17α)-17-({[(1,1-dimethylethyl)oxy]carbonyl}oxy)-6,9-difluoro-11-hydroxy-16-methyl-3-oxoandrosta-1,4-diene-17-carboxylate] | > 100 nM | < 10% | < 0.1 nM
